In PubChem BioAssay AID248 (DTP/NCI, 2004):
Values joined by “and” are separate entries in the source; they are usually repeats but may differ in a detail not shown here. Equal values may be shown once. Inconclusive results and toxic doses are left out. Rule as the data show it: active = T/C of 150% or more; inactive = T/C below 125%.

Tested on: L1210 leukemia ip in BDF1 mice, survival T/C
Assay: NCI In Vivo Anticancer Drug Screen. Data for tumor model L1210 Leukemia (intraperitoneal) in B6D2F1 (BDF1) mice
Settings: endpoint: mean survival time, higher = longer survival
Method in brief: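 Tumor was transplanted into mice, which were then dosed with test compound or vehicle alone. Survival was recorded for each group, and the treated figure was expressed relative to the control figure.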

[1] = dose: 100.0 mg/kg/injection, schedule: Q01DX009 (ip), vehicle: saline with Tween-80
[2] = dose: 100.0 mg/kg/injection, schedule: Q04DX003 (ip), vehicle: saline with Tween-80
[3] = dose: 200.0 mg/kg/injection, schedule: Q01DX009 (ip), vehicle: saline with Tween-80
[4] = dose: 200.0 mg/kg/injection, schedule: Q04DX003 (ip), vehicle: saline with Tween-80
[5] = dose: 400.0 mg/kg/injection, schedule: Q01DX009 (ip), vehicle: saline with Tween-80
[6] = dose: 400.0 mg/kg/injection, schedule: Q04DX003 (ip), vehicle: saline with Tween-80
[7] = dose: 75.0 mg/kg/injection, schedule: Q01DX009 (ip), vehicle: Klucel (hydroxypropylcellulose) (HPC)
[8] = dose: 150.0 mg/kg/injection, schedule: Q01DX009 (ip), vehicle: Klucel (hydroxypropylcellulose) (HPC)
[9] = dose: 300.0 mg/kg/injection, schedule: Q01DX009 (ip), vehicle: Klucel (hydroxypropylcellulose) (HPC)
[10] = dose: 400.0 mg/kg/injection, schedule: Q04DX003 (ip), vehicle: Klucel (hydroxypropylcellulose) (HPC)
[11] = dose: 100.0 mg/kg/injection, schedule: Q04DX003 (ip), vehicle: Klucel (hydroxypropylcellulose) (HPC)
[12] = dose: 200.0 mg/kg/injection, schedule: Q04DX003 (ip), vehicle: Klucel (hydroxypropylcellulose) (HPC)
[13] = dose: 100.0 mg/kg/injection, schedule: Q04DX002 (ip), vehicle: Klucel (hydroxypropylcellulose) (HPC)
[14] = dose: 200.0 mg/kg/injection, schedule: Q04DX002 (ip), vehicle: Klucel (hydroxypropylcellulose) (HPC)
[15] = dose: 400.0 mg/kg/injection, schedule: Q04DX002 (ip), vehicle: Klucel (hydroxypropylcellulose) (HPC)
[16] = dose: 100.0 mg/kg/injection, schedule: Q01DX009 (ip), vehicle: Klucel (hydroxypropylcellulose) (HPC)
[17] = dose: 100.0 mg/kg/injection, schedule: Q04DX003 (ip), vehicle: saline
[18] = dose: 200.0 mg/kg/injection, schedule: Q01DX009 (ip), vehicle: Klucel (hydroxypropylcellulose) (HPC)
[19] = dose: 400.0 mg/kg/injection, schedule: Q01DX009 (ip), vehicle: Klucel (hydroxypropylcellulose) (HPC)
[20] = dose: 50.0 mg/kg/injection, schedule: Q01DX001 (ip), vehicle: saline
[21] = dose: 100.0 mg/kg/injection, schedule: Q01DX001 (ip), vehicle: saline
[22] = dose: 200.0 mg/kg/injection, schedule: Q01DX001 (ip), vehicle: saline
[23] = dose: 400.0 mg/kg/injection, schedule: Q01DX001 (ip), vehicle: saline
[24] = dose: 50.0 mg/kg/injection, schedule: Q01DX009 (ip), vehicle: Klucel (hydroxypropylcellulose) (HPC)

Measured: T/C

CCOc1ccc(NC(=O)CCN2CCC(O)(c3ccccc3)CC2)cc1
inactive: [1] 96 % of control | [2] 103 % of control | [3] 86 % of control | [4] 100 % of control | [5] 91 % of control | [6] 95 % of control

Cn1c(=O)n2n(c1=O)C1C=CC2C2C(Br)C(Br)C21 (stereo not drawn)
inactive: [1] 97 % of control | [2] 102 % of control | [3] 101 % of control | [4] 94 % of control | [5] 103 % of control | [6] 105 % of control

O=C(O)CCSc1nc2ccccc2s1
inactive: [7] 101 % of control | [8] 88 % of control | [9] 95 % of control | [10] 94 % of control

CC(=O)N1c2ccccc2C(=O)OC1c1ccc2c(c1)CCC2 (stereo not drawn)
inactive: [11] 94 % of control | [12] 89 % of control | [10] 102 % of control

CCCCCCCS(=O)(=O)c1nc2ccccc2[nH]1
inactive: [13] 95 % of control | [14] 101 % of control | [15] 104 % of control

C/C=C/C(=O)Nc1cccc(Cl)c1
inactive: dose: 100.0 mg/kg/injection, schedule: Q01DX009 (ip), vehicle: other 92 % of control | dose: 200.0 mg/kg/injection, schedule: Q01DX009 (ip), vehicle: other 100 % of control

OC(c1ccccc1)(c1ccccc1)c1nc2ccccc2[nH]1
inactive: [7] 97 % of control | [8] 87 % of control | [9] 104 % of control

CC1=CC(C)(C)NC(=S)N1
inactive: [16] 97 % of control | [17] 113 % of control | [18] 101 % of control | dose: 200.0 mg/kg/injection, schedule: Q04DX003 (ip), vehicle: saline 106 % of control | [19] 98 % of control | dose: 400.0 mg/kg/injection, schedule: Q04DX003 (ip), vehicle: saline 107 % of control

O=C1c2ccccc2C(=O)c2cc(S(=O)(=O)O)ccc21
inactive: [2] 95 % of control | [4] 95 % of control | [6] 95 % of control

C1CC2CN(CCCN3CCOCC3)C(C1)O2 (stereo not drawn)
inactive: [20] 95 % of control | [21] 101 % of control | [22] 101 % of control | [23] 97 % of control

COc1cc(N(C)C)ccc1C=O
inactive: [24] 93 % of control | [16] 101 % of control | [11] 100 % of control | [18] 105 % of control | [12] 101 % of control | [19] 105 % of control | [10] 97 % of control

Nc1ccc(S(=O)(=O)c2cc(O)ccc2O)cc1
inactive: dose: 100.0 mg/kg/injection, schedule: Q01DX001 (ip), vehicle: carboxymethylcellulose (CMC) 101 % of control | dose: 200.0 mg/kg/injection, schedule: Q01DX001 (ip), vehicle: carboxymethylcellulose (CMC) 100 % of control | dose: 400.0 mg/kg/injection, schedule: Q01DX001 (ip), vehicle: carboxymethylcellulose (CMC) 97 % of control

O=C(c1ccccc1)C1C(c2ccccc2)N1C1CCCCC1 (stereo not drawn)
inactive: [24] 95 % of control | [16] 97 % of control and 103 % of control | [11] 96 % of control and 100 % of control | [18] 95 % of control and 89 % of control | [12] 93 % of control and 88 % of control | [19] 90 % of control and 91 % of control | [10] 95 % of control and 100 % of control

CCN(CC)Cc1cc(Nc2c3ccc(Cl)cc3nc3ccc(OC)cc23)ccc1O
inactive: [13] 105 % of control | [14] 112 % of control | [15] 108 % of control

O=CNNc1ccccc1
inactive: dose: 75.0 mg/kg/injection, schedule: Q01DX001 (ip), vehicle: acetone 98 % of control | [11] 106 % of control | dose: 150.0 mg/kg/injection, schedule: Q01DX001 (ip), vehicle: acetone 100 % of control | [12] 95 % of control | dose: 300.0 mg/kg/injection, schedule: Q01DX001 (ip), vehicle: acetone 96 % of control

C=C1C(=O)OC2CC3(C)OC3C3OC3C3=CC(OC3=O)C12 (stereo not drawn)
inactive: dose: 5.0 mg/kg/injection, schedule: Q01DX001 (ip), vehicle: carboxymethylcellulose (CMC) 112 % of control

CC(=O)Nc1ccc(S(=O)(=O)SC(Cl)(Cl)Cl)cc1
inactive: dose: 100.0 mg/kg/injection, schedule: Q01DX009 (ip), vehicle: gum acacia 99 % of control | dose: 200.0 mg/kg/injection, schedule: Q01DX009 (ip), vehicle: gum acacia 94 % of control | dose: 400.0 mg/kg/injection, schedule: Q01DX009 (ip), vehicle: gum acacia 99 % of control

CCOC(=O)c1ccc(NC(=O)Oc2ccccc2C(=O)OC)cc1
inactive: [16] 96 % of control | [18] 97 % of control | [19] 93 % of control

COc1ccc(OC)c2c(C)c(C)[nH]c12
inactive: [20] 98 % of control | [21] 93 % of control | [22] 109 % of control | [23] 106 % of control

NC(CCC(=O)Nc1cccc2ccccc12)C(=O)O (stereo not drawn)
inactive: [2] 105 % of control | [4] 100 % of control | [6] 106 % of control

Cc1cc(C(=O)C(=O)O)c(CN2C(=O)c3ccccc3C2=O)c(=O)n1C
inactive: dose: 100.0 mg/kg/injection, schedule: Q01DX001 (ip), vehicle: saline with Tween-80 97 % of control | dose: 200.0 mg/kg/injection, schedule: Q01DX001 (ip), vehicle: saline with Tween-80 107 % of control | dose: 400.0 mg/kg/injection, schedule: Q01DX001 (ip), vehicle: saline with Tween-80 97 % of control

O=[N+]([O-])CC(Nc1ccc(Br)cc1)c1ccccc1 (stereo not drawn)
inactive: dose: 67.0 mg/kg/injection, schedule: Q01DX009 (ip), vehicle: saline with Tween-80 95 % of control | [1] 97 % of control | dose: 150.0 mg/kg/injection, schedule: Q01DX009 (ip), vehicle: saline with Tween-80 100 % of control | [3] 91 % of control | [5] 86 % of control

Cc1cc([N+](=O)[O-])cc(C)c1OC(=O)c1ccc(N=C(N)N)cc1
inactive: dose: 3.12 mg/kg/injection, schedule: Q01DX009 (ip), vehicle: saline 94 % of control | dose: 6.25 mg/kg/injection, schedule: Q01DX009 (ip), vehicle: saline 93 % of control | dose: 12.5 mg/kg/injection, schedule: Q01DX009 (ip), vehicle: saline 103 % of control | dose: 25.0 mg/kg/injection, schedule: Q01DX009 (ip), vehicle: saline 97 % of control and 107 % of control | dose: 25.0 mg/kg/injection, schedule: Q04DX003 (ip), vehicle: saline 111 % of control | dose: 50.0 mg/kg/injection, schedule: Q01DX009 (ip), vehicle: saline 103 % of control and 92 % of control | dose: 50.0 mg/kg/injection, schedule: Q04DX003 (ip), vehicle: saline 105 % of control | [17] 100 % of control

O=C1OCCC1n1cc(F)c(=O)[nH]c1=O (stereo not drawn)
inactive: [11] 102 % of control | [12] 98 % of control | [10] 96 % of control

CC(C)(C)N1C(=O)N(C(C)(C)C)C1=O
inactive: [1] 91 % of control | [11] 113 % of control | [3] 94 % of control | [12] 102 % of control | [5] 93 % of control | [10] 109 % of control

Cc1c(C(C)(C)c2ccccc2)n(C)c2ccc(C(C)(C)c3ccccc3)cc12
inactive: dose: 50.0 mg/kg/injection, schedule: Q01DX001 (ip), vehicle: other 91 % of control | dose: 100.0 mg/kg/injection, schedule: Q01DX001 (ip), vehicle: other 91 % of control | dose: 200.0 mg/kg/injection, schedule: Q01DX001 (ip), vehicle: other 96 % of control | dose: 400.0 mg/kg/injection, schedule: Q01DX001 (ip), vehicle: other 93 % of control
